The source of these data is US8524917B2, “6-substituted indole-3-carboxylic acid amide compounds having sphingosine-1-phosphate (S1P) receptor antagonist biological activity” (Allergan, Inc., priority 2007, dated 2013).

This assay addresses human S1P3 receptor (Homo sapiens (Human), UniProt Q99500). Nature of the assay: Activation or block of activation of human S1P3 receptor, Ca+2 FLIPR assay. Conditions: for Kb: second concentration in the cell, read-out: S1P3 Kb. The format is cell-based. As for the experimental part: Compounds were assessed for their ability to activate or block activation of the human S1P3 receptor in T24 cells stably expressing the human S1P3 receptor. Ten thousand cells/well were plated into 384-well poly-D-lysine coated plates one day prior to use. The growth media for the S1P3 receptor expressing cell line was McCoy's 5A medium supplemented with 10% charcoal-treated fetal bovine serum (FBS), 1% antibiotic-antimycotic and 400 μg/ml geneticin. On the day of the experiment, the cells were washed twice with Hank's Balanced Salt Solution supplemented with 20 mM HEPES (HBSS/Hepes buffer). […] Extracellular dye was removed by washing the cell plates four times prior to placing the plates in the FLIPR (Fluorometric Imaging Plate Reader, Molecular Devices). Ligands were diluted in HBSS/Hepes buffer and prepared in 384-well microplates. The positive control, Sphingosine-1-Phosphate (S1P), was diluted in HBSS/Hepes buffer with 4 mg/ml fatty acid free bovine serum albumin. The FLIPR transferred 12.5 μl from the ligand microplate to the cell plate and took fluorescent measurements for 75 seconds, taking readings every second, and then for 2.5 minutes, taking readings every 10 seconds. […] IC50 values were determined through a […] analysis using the Levenburg Marquardt algorithm.

Where [1] appears, read: T24 cells stably expressing the human S1P3 receptor, FLIPR Ca+2 response, 0.61 nM to 10,000 nM, read-out: S1P3 IC50.
[2] abbreviates: T24 cells stably expressing the human S1P3 receptor, value in brackets.
Where [3] appears, read: T24 cells stably expressing the human S1P3 receptor.

Each structure is given as a SMILES string. Like-named read-outs stand apart in the source and are kept apart here. Some results are limits rather than exact numbers.

Sequence of human S1P3 receptor (Q99500 whole entry): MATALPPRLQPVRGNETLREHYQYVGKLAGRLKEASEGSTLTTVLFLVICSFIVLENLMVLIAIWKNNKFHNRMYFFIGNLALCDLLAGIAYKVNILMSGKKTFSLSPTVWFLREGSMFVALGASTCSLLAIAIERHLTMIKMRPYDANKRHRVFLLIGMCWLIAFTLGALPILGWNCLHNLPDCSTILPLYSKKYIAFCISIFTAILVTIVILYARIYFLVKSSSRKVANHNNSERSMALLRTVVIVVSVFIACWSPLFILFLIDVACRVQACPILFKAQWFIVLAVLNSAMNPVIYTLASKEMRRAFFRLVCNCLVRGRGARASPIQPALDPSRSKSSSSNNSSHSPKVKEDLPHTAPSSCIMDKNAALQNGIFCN

In the case of `COC(=O)c1ccc2c(C(=O)NCc3ccc(F)c(F)c3)c(C(C)C)n(Cc3ccccc3)c2c1`, the IC50 (in general, the midpoint of a concentration-inhibition curve) under setting [1] stood at 12 nM. Moreover, the “S1P3 (% inh)” value under setting [2] is 100%.

`CC(C)c1c(C(=O)NCc2ccc(F)c(F)c2)c2ccc(C(=O)O)cc2n1Cc1ccccc1`: the IC50 under setting [1] was above 10000 nM. The “S1P3 (% inh)” value under setting [2] is on record as 40%.

In the case of `CC(C)c1c(C(=O)NCc2ccc(F)c(F)c2)c2ccc(C(=O)N3CCCC3)cc2n1Cc1ccccc1`, the midpoint of inhibition, the IC50, lay at 170 nM. In addition, under setting [2], the “S1P3 (% inh)” value is reported as 170 nM (100) %.

As for `CC(C)c1c(C(=O)NCc2ccc(F)c(F)c2)c2ccc(C(=O)N(C)C)cc2n1Cc1ccccc1`, the IC50 under setting [1] was 197 nM. For the same compound, the “S1P3 (% inh)” value under setting [2] was determined as 100%.

For `CC(C)NC(=O)c1ccc2c(C(=O)NCc3ccc(F)c(F)c3)c(C(C)C)n(Cc3ccccc3)c2c1`, the IC50 under setting [1] is 634 nM. Besides, under setting [2], the “S1P3 (% inh)” value is listed as 100%.

With `CCNC(=O)c1ccc2c(C(=O)NCc3ccc(F)c(F)c3)c(C(C)C)n(Cc3ccccc3)c2c1`, the IC50 under setting [1] amounted to 346 nM. The “S1P3 (% inh)” value under setting [2] came out at 99%.

As for `CCCNC(=O)c1ccc2c(C(=O)NCc3ccc(F)c(F)c3)c(C(C)C)n(Cc3ccccc3)c2c1`, under setting [1], the IC50 was 146 nM. Under setting [2], the “S1P3 (% inh)” value amounted to 99%.

On to `CC(C)c1c(C(=O)NCc2ccc(F)c(F)c2)c2ccc(CN3CCCC3)cc2n1Cc1ccccc1`, for which, under setting [1], the concentration for half-maximal inhibition (IC50) came out at 362 nM. Further, the “S1P3 (% inh)” value under setting [2] was 93%.

In the case of `CC(C)c1c(C(=O)NCc2ccc(F)c(F)c2)c2ccc(CN(C)C)cc2n1Cc1ccccc1`, the IC50 under setting [1] was 990 nM. Also, the “S1P3 (% inh)” value under setting [2] is recorded as 98%.

As for `CC(C)NCc1ccc2c(C(=O)NCc3ccc(F)c(F)c3)c(C(C)C)n(Cc3ccccc3)c2c1`, the IC50 under setting [1] came to 2300 nM. For the same compound, under setting [2], the “S1P3 (% inh)” value turned out to be 84%.

Turning to `CCNCc1ccc2c(C(=O)NCc3ccc(F)c(F)c3)c(C(C)C)n(Cc3ccccc3)c2c1`, the IC50 under setting [1] was found to be 2500 nM. Further, the “S1P3 (% inh)” value under setting [2] is on record as 87%.

Consider `CCCNCc1ccc2c(C(=O)NCc3ccc(F)c(F)c3)c(C(C)C)n(Cc3ccccc3)c2c1`, for which the IC50 under setting [1] stood at 2600 nM. Further, the “S1P3 (% inh)” value under setting [2] came out at 77%.

In the case of `CC(C)COC(=O)c1ccc2c(C(=O)NCc3ccc(F)c(F)c3)c(C(C)C)n(Cc3ccccc3)c2c1`, the IC50 was 12 nM. Under setting [2], the “S1P3 (% inh)” value is given as 12 nM (97) %.

Turning to `CCCCOC(=O)c1ccc2c(C(=O)NCc3ccc(F)c(F)c3)c(C(C)C)n(Cc3ccccc3)c2c1`, under setting [1], the IC50 came out at 4 nM. Besides, the “S1P3 (% inh)” value under setting [2] amounted to 97%.

With `CO/N=C/c1ccc2c(C(=O)NCc3ccc(F)c(F)c3)c(C(C)C)n(Cc3ccccc3)c2c1`, under setting [1], the half-maximal inhibitory concentration (IC50) amounted to 21 nM. Also, under setting [2], the “S1P3 (% inh)” value stood at 99%.

With `CC(C)CO/N=C/c1ccc2c(C(=O)NCc3ccc(F)c(F)c3)c(C(C)C)n(Cc3ccccc3)c2c1`, the IC50 under setting [1] was 88 nM. The “S1P3 (% inh)” value under setting [2] was determined as 100%.

As to `CC(C)c1c(C(=O)NCc2cccnc2)c2ccc(OC3CCCC3)cc2n1Cc1ccccn1`, the IC50 under setting [1] is 86 nM. In addition, under setting [2], the “S1P3 (% inh)” value is recorded as 95%.

With `CCOC(=O)c1ccc2c(C(=O)NCc3ccccc3)c(C(C)C)n(Cc3ccccc3)c2c1`, the IC50 under setting [1] worked out at 9 nM. The “S1P3 (% inh)” value under setting [2] amounted to 96%.

Take `CCOC(=O)c1ccc2c(C(=O)NCc3cccnc3)c(C(C)C)n(Cc3ccccc3)c2c1`: it took 187 nM to reach half-maximal inhibition (IC50) and the “S1P3 (% inh)” value is 187 nM (95) %.

On to `CCO/N=C/c1ccc2c(C(=O)NCc3ccc(F)c(F)c3)c(C(C)C)n(Cc3ccccc3)c2c1`, for which the IC50 under setting [1] is 145 nM. Under setting [2], the “S1P3 (% inh)” value was 99%.

On to `CC(C)Oc1ccc2c(C(=O)NCc3cccnc3)c(C(C)C)n(Cc3ccccn3)c2c1`, for which, under setting [2], the “S1P3 (% inh)” value is given as “ND (98) %”.

Turning to `CCCOc1ccc2c(C(=O)NCc3cccnc3)c(C(C)C)n(Cc3ccccn3)c2c1`, the IC50 under setting [1] turned out to be 1200 nM. Also, under setting [2], the “S1P3 (% inh)” value came out at 99%.

Regarding `CC(C)COc1ccc2c(C(=O)NCc3cccnc3)c(C(C)C)n(Cc3ccccn3)c2c1`, the IC50 was found to be 124 nM and the “S1P3 (% inh)” value is listed as 124 nM (99) %.

`CC(C)c1c(C(=O)NCc2cccnc2)c2ccc(O)cc2n1Cc1ccccn1`: the “S1P3 (% inh)” value under setting [2] was “ND (54) %”.

For `CCOC(=O)c1ccc2c(C(=O)NCc3cccc(F)c3)c(C(C)C)n(Cc3ccccc3)c2c1`, the 50% inhibitory concentration (IC50) under setting [1] turned out to be 42 nM. Besides, the “S1P3 (% inh)” value under setting [2] came to 99%.

In the case of `CCOC(=O)c1ccc2c(C(=O)NCc3ccc(F)cc3)c(C(C)C)n(Cc3ccccc3)c2c1`, the IC50 under setting [1] turned out to be 43 nM. The “S1P3 (% inh)” value under setting [2] was determined as 99%.

For the compound `CC(C)OC(=O)c1ccc2c(C(=O)NCc3ccc(F)c(F)c3)c(C(C)C)n(Cc3ccccc3)c2c1`, the IC50 under setting [1] was determined as 45 nM. In addition, the “S1P3 (% inh)” value under setting [2] stood at 99%.

Turning to `CC(C)c1c(C(=O)NCc2ccc(F)c(F)c2)c2ccc(/C=N/OC(C)(C)C)cc2n1Cc1ccccc1`, the IC50 under setting [1] worked out at 145 nM. Further, the “S1P3 (% inh)” value under setting [2] was 99%.

Turning to `CCO/N=C(\C)c1ccc2c(C(=O)NCc3ccc(F)c(F)c3)c(C(C)C)n(Cc3ccccc3)c2c1`, under setting [1], the IC50 worked out at 262 nM. Also, under setting [2], the “S1P3 (% inh)” value is recorded as 98%.

As to `CO/N=C(\C)c1ccc2c(C(=O)NCc3ccc(F)c(F)c3)c(C(C)C)n(Cc3ccccc3)c2c1`, 147 nM corresponded to half-maximal inhibition (IC50) and the “S1P3 (% inh)” value is recorded as 147 nM (100) %.

For `CC(C)c1c(C(=O)NCc2ccc(F)c(F)c2)c2ccc(OC3CCN(C(=O)OC(C)(C)C)C3)cc2n1Cc1ccccc1` (stereo not shown), the IC50 under setting [1] worked out at 673 nM. Also, the “S1P3 (% inh)” value under setting [2] came to 100%.

With `CC(C)c1c(C(=O)NCc2ccc(F)c(F)c2)c2ccc(OC3CCNC3)cc2n1Cc1ccccc1` (stereo not shown), the IC50 under setting [1] came out at 2400 nM. The “S1P3 (% inh)” value under setting [2] stood at 80%.

With `CCOC(=O)c1ccc2c(C(=O)NCc3cccc(F)c3)c(C(C)C)n(Cc3ccccn3)c2c1`, the IC50 was 174 nM and the “S1P3 (% inh)” value was 174 nM (100) %.

For the compound `CC(C)c1c(C(=O)NCc2ccc(F)c(F)c2)c2ccc(OC3CCOC3)cc2n1Cc1ccccn1` (stereo not shown), the IC50 under setting [1] is 19 nM. The Kb under setting [3] came to 21 nM. The “S1P3 (% inh)” value under setting [2] was 100%.

Consider `CC(C)c1c(C(=O)NCc2ccc(F)c(F)c2)c2ccc(OC3CCCC3)cc2n1Cc1ccccn1`, for which, under setting [1], the IC50 was found to be 3 nM. Besides, the Kb under setting [3] came to 4 nM. Further, the “S1P3 (% inh)” value under setting [2] is 100%.

Consider `C#CCOc1ccc2c(C(=O)NCc3ccc(F)c(F)c3)c(C(C)C)n(Cc3ccccn3)c2c1`, for which the IC50 under setting [1] was 324 nM. Besides, under setting [2], the “S1P3 (% inh)” value is listed as 99%.

Take `CC(C)c1c(C(=O)NCc2ccc(F)c(F)c2)c2ccc(/C=N/N(C)C)cc2n1Cc1ccccn1`: the concentration for half-maximal inhibition (IC50) under setting [1] is 93 nM. In addition, the “S1P3 (% inh)” value under setting [2] is recorded as 100%.

On to `CO/N=C/c1ccc2c(C(=O)NCc3ccc(F)c(F)c3)c(C(C)C)n(Cc3ccccn3)c2c1`, for which the IC50 under setting [1] was found to be 137 nM. For the same compound, the “S1P3 (% inh)” value under setting [2] is 100%.

For the compound `CC(=NO)c1c(C(=O)NCc2ccc(F)c(F)c2)c2ccc(OC(C)C)cc2n1Cc1ccccn1` (stereo in doubt) [Compound 110, (E)-N-(3,4-Difluorobenzyl)-2-(1-(hydroxyimino)ethyl)-6-isopropoxy-1-(pyridin-2-ylmethyl)-1H-indole-3-carboxamide], half-maximal inhibition (IC50) required 384 nM and the “S1P3 (% inh)” value is 384 nM (100) %.

Turning to `CON=C(C)c1c(C(=O)NCc2ccc(F)c(F)c2)c2ccc(OC(C)C)cc2n1Cc1ccccn1` (stereo in doubt) [Compound 111, (E)-N-(3,4-Difluorobenzyl)-6-isopropoxy-2-(1-(methoxyimino)ethyl)-1-(pyridin-2-ylmethyl)-1H-indole-3-carboxamide], the “S1P3 (% inh)” value was 263 nM (100) %. Also, the IC50 (read-out: S1P3 IC50) was 263 nM.

Take `COc1ccc2c(C(=O)NCc3ccc(F)c(F)c3)c(C(C)C)n(Cc3ccccc3)c2c1` [Compound 7, 1-Benzyl-N-(3,4-difluorobenzyl)-2-isopropyl-6-methoxy-1H-indole-3-carboxamide]: under setting [1], the IC50 was determined as 560 nM. Further, under setting [2], the “S1P3 (% inh)” value is given as 98%.

With `CC(C)c1c(C(=O)NCc2ccc(F)c(F)c2)c2ccc(O)cc2n1Cc1ccccc1` [Compound 8, 1-Benzyl-N-(3,4-difluorobenzyl)-6-hydroxy-2-isopropyl-1H-indole-3-carboxamide], the IC50 under setting [1] was 3100 nM. For the same compound, the “S1P3 (% inh)” value under setting [2] was found to be 71%.

In the case of `CCCOc1ccc2c(C(=O)NCc3ccc(F)c(F)c3)c(C(C)C)n(Cc3ccccc3)c2c1` [Compound 10, 1-Benzyl-N-(3,4-difluorobenzyl)-2-isopropyl-6-propoxy-1H-indole-3-carboxamide], the Kb under setting [3] stood at 2 nM.

Consider `CC(C)Oc1ccc2c(C(=O)NCc3ccc(F)c(F)c3)c(C(C)C)n(Cc3ccccc3)c2c1` [Compound 11, 1-Benzyl-N-(3,4-difluorobenzyl)-6-isopropoxy-2-isopropyl-1H-indole-3-carboxamide], for which the Kb under setting [3] stood at 2 nM.

Consider `CCCCOc1ccc2c(C(=O)NCc3ccc(F)c(F)c3)c(C(C)C)n(Cc3ccccc3)c2c1` [Compound 12, 1-Benzyl-6-butoxy-N-(3,4-difluorobenzyl)-2-isopropyl-1H-indole-3-carboxamide], for which the IC50 under setting [1] came to 3 nM. For the same compound, under setting [2], the “S1P3 (% inh)” value worked out at 100%.

`CC(C)COc1ccc2c(C(=O)NCc3ccc(F)c(F)c3)c(C(C)C)n(Cc3ccccc3)c2c1` [Compound 13, 1-Benzyl-N-(3,4-difluorobenzyl)-6-isobutoxy-2-isopropyl-1H-indole-3-carboxamide]: the IC50 under setting [1] was 1.2 nM. Further, under setting [3], the Kb amounted to 1.6 nM. The “S1P3 (% inh)” value under setting [2] came to 100%.
